PubChem BioAssay AID2060897 (Molecular Pharmacology Branch, DTP, NCI, 2025)
Values belong to the molecule of their own block, whether it stands above or below them.

System: 966289-007-R4-J1-PDC complex spheroid viability
Assay: Anticancer human tumor 966289-007-R4-J1-PDC patient-derived pancreatic adenocarcinoma cell line growth inhibition [RAS]
Settings: for viability, T/C: stronger effect = lower value
Summary of the method: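 Multi-cell-type spheroids: tumor cells plus HUVEC endothelial cells and mesenchymal stem cells. RAS-pathway inhibitors were combined with targeted agents, each dosed in half-log steps down from clinical Cmax, or from 10 microM when Cmax was unknown.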

[1] = curve of first compound, second compound 0.000949 µM
[2] = curve of first compound, second compound 0.003 µM
[3] = curve of first compound, second compound 0.00949 µM
[4] = curve of first compound, second compound 0.03 µM
[5] = curve of first compound, second compound 0.0949 µM
[6] = curve of first compound, second compound 0.3 µM
[7] = second compound 0.000949 µM, first compound 0.0316 µM
[8] = second compound 0.000949 µM, first compound 0.1 µM
[9] = second compound 0.000949 µM, first compound 0.316 µM
[10] = second compound 0.000949 µM, first compound 1 µM
[11] = second compound 0.000949 µM, first compound 3.16 µM
[12] = second compound 0.000949 µM, first compound 10 µM
[13] = second compound 0.003 µM, first compound 0.0316 µM
[14] = second compound 0.003 µM, first compound 0.1 µM
[15] = second compound 0.003 µM, first compound 0.316 µM
[16] = second compound 0.003 µM, first compound 1 µM
[17] = second compound 0.003 µM, first compound 3.16 µM
[18] = second compound 0.003 µM, first compound 10 µM
[19] = second compound 0.00949 µM, first compound 0.0316 µM
[20] = second compound 0.00949 µM, first compound 0.1 µM
[21] = second compound 0.00949 µM, first compound 0.316 µM
[22] = second compound 0.00949 µM, first compound 1 µM
[23] = second compound 0.00949 µM, first compound 3.16 µM
[24] = second compound 0.00949 µM, first compound 10 µM
[25] = second compound 0.03 µM, first compound 0.0316 µM
[26] = second compound 0.03 µM, first compound 0.1 µM
[27] = second compound 0.03 µM, first compound 0.316 µM
[28] = second compound 0.03 µM, first compound 1 µM
[29] = second compound 0.03 µM, first compound 3.16 µM
[30] = second compound 0.03 µM, first compound 10 µM
[31] = second compound 0.0949 µM, first compound 0.0316 µM
[32] = second compound 0.0949 µM, first compound 0.1 µM
[33] = second compound 0.0949 µM, first compound 0.316 µM
[34] = second compound 0.0949 µM, first compound 1 µM
[35] = second compound 0.0949 µM, first compound 3.16 µM
[36] = second compound 0.0949 µM, first compound 10 µM
[37] = second compound 0.3 µM, first compound 0.0316 µM
[38] = second compound 0.3 µM, first compound 0.1 µM
[39] = second compound 0.3 µM, first compound 0.316 µM
[40] = second compound 0.3 µM, first compound 1 µM
[41] = second compound 0.3 µM, first compound 3.16 µM
[42] = second compound 0.3 µM, first compound 10 µM
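Further: spheroids exposed to agents for one week before readout.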
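Wherever viability, T/C is given: percent viability relative to DMSO vehicle control wells as 100%.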

- IC50 (curve of first compound, second compound 0.00316 µM): 5.59 µM
- IC50 (curve of first compound, second compound 0.01 µM): 5.17 µM
- IC50 (curve of first compound, second compound 0.0316 µM): 5.85 µM
- IC50 (curve of first compound, second compound 0.1 µM): 5.45 µM
- IC50 (curve of first compound, second compound 0.316 µM): 5.98 µM
- IC50 (curve of first compound, second compound 1 µM): 5.35 µM
Compound: CC(C)NCC(C(=O)N1CCN(c2ncnc3c2C(C)CC3O)CC1)c1ccc(Cl)cc1 (centres undefined) + C=CC(=O)N1CCN(c2nc(OCC3CCCN3C)nc3c(F)c(-c4nc(N)cc(C)c4C(F)(F)F)c(Cl)cc23)C(C)C1
- viability, T/C (second compound 0.00316 µM, first compound 0.0316 µM): 99.8%
- viability, T/C (second compound 0.00316 µM, first compound 0.1 µM): 85.1%
- viability, T/C (second compound 0.00316 µM, first compound 0.316 µM): 112%
- viability, T/C (second compound 0.00316 µM, first compound 1 µM): 101%
- viability, T/C (second compound 0.00316 µM, first compound 3.16 µM): 70.1%
- viability, T/C (second compound 0.00316 µM, first compound 10 µM): 29.5%
- viability, T/C (second compound 0.01 µM, first compound 0.0316 µM): 105%
- viability, T/C (second compound 0.01 µM, first compound 0.1 µM): 96.7%
- viability, T/C (second compound 0.01 µM, first compound 0.316 µM): 118%
- viability, T/C (second compound 0.01 µM, first compound 1 µM): 99.5%
- viability, T/C (second compound 0.01 µM, first compound 3.16 µM): 61.9%
- viability, T/C (second compound 0.01 µM, first compound 10 µM): 34.3%
- viability, T/C (second compound 0.0316 µM, first compound 0.0316 µM): 99.7%
- viability, T/C (second compound 0.0316 µM, first compound 0.1 µM): 110%
- viability, T/C (second compound 0.0316 µM, first compound 0.316 µM): 126%
- viability, T/C (second compound 0.0316 µM, first compound 1 µM): 104%
- viability, T/C (second compound 0.0316 µM, first compound 3.16 µM): 67.2%
- viability, T/C (second compound 0.0316 µM, first compound 10 µM): 35.1%
- viability, T/C (second compound 0.1 µM, first compound 0.0316 µM): 116%
- viability, T/C (second compound 0.1 µM, first compound 0.1 µM): 104%
- viability, T/C (second compound 0.1 µM, first compound 0.316 µM): 132%
- viability, T/C (second compound 0.1 µM, first compound 1 µM): 110%
- viability, T/C (second compound 0.1 µM, first compound 3.16 µM): 63.2%
- viability, T/C (second compound 0.1 µM, first compound 10 µM): 35.4%
- viability, T/C (second compound 0.316 µM, first compound 0.0316 µM): 106%
- viability, T/C (second compound 0.316 µM, first compound 0.1 µM): 97.1%
- viability, T/C (second compound 0.316 µM, first compound 0.316 µM): 127%
- viability, T/C (second compound 0.316 µM, first compound 1 µM): 107%
- viability, T/C (second compound 0.316 µM, first compound 3.16 µM): 67.5%
- viability, T/C (second compound 0.316 µM, first compound 10 µM): 35.9%
- viability, T/C (second compound 1 µM, first compound 0.0316 µM): 101%
- viability, T/C (second compound 1 µM, first compound 0.1 µM): 95.8%
- viability, T/C (second compound 1 µM, first compound 0.316 µM): 115%
- viability, T/C (second compound 1 µM, first compound 1 µM): 90.1%
- viability, T/C (second compound 1 µM, first compound 3.16 µM): 62.9%
- viability, T/C (second compound 1 µM, first compound 10 µM): 35.5%

- IC50 [1]: 0.169 µM
- IC50 [2]: 0.12 µM
- IC50 [3]: 0.108 µM
- IC50 [4]: 0.0928 µM
- IC50 [5]: 0.096 µM
- IC50 [6]: 0.139 µM
Compound: CC1(O)CCCC1n1c(=O)c(C(F)F)cc2cnc(NC3CCN(S(C)(=O)=O)CC3)nc21 (centres undefined) + CCn1c(-c2cc(N3CCN(C)CC3)cnc2C(C)OC)c2c3cc(ccc31)-c1csc(n1)CC(NC(=O)C1CC1C)C(=O)N1CCCC(N1)C(=O)OCC(C)(C)C2
- viability, T/C [7]: 148%
- viability, T/C [8]: 63.6%
- viability, T/C [9]: 28.7%
- viability, T/C [10]: 29.1%
- viability, T/C [11]: 26.8%
- viability, T/C [12]: 2.64%
- viability, T/C [13]: 125%
- viability, T/C [14]: 51.6%
- viability, T/C [15]: 27.8%
- viability, T/C [16]: 24.4%
- viability, T/C [17]: 24.8%
- viability, T/C [18]: 3.3%
- viability, T/C [19]: 98.4%
- viability, T/C [20]: 52.7%
- viability, T/C [21]: 22.4%
- viability, T/C [22]: 25.9%
- viability, T/C [23]: 26%
- viability, T/C [24]: 3.14%
- viability, T/C [25]: 85%
- viability, T/C [26]: 48.6%
- viability, T/C [27]: 21.9%
- viability, T/C [28]: 23.7%
- viability, T/C [29]: 25.1%
- viability, T/C [30]: 3%
- viability, T/C [31]: 84.5%
- viability, T/C [32]: 47.4%
- viability, T/C [33]: 25.4%
- viability, T/C [34]: 27.1%
- viability, T/C [35]: 26.6%
- viability, T/C [36]: 2.94%
- viability, T/C [37]: 107%
- viability, T/C [38]: 55.9%
- viability, T/C [39]: 28.7%
- viability, T/C [40]: 25.8%
- viability, T/C [41]: 24.9%
- viability, T/C [42]: 3.18%

- IC50 [1]: > 10 µM
- IC50 [2]: > 10 µM
- IC50 [3]: > 10 µM
- IC50 [4]: > 10 µM
- IC50 [5]: > 10 µM
- IC50 [6]: > 10 µM
Compound: NC1c2ccccc2OC12CCN(c1cnc3c(N4CCCc5ncccc54)n[nH]c3n1)CC2 (centres undefined) + CCn1c(-c2cc(N3CCN(C)CC3)cnc2C(C)OC)c2c3cc(ccc31)-c1csc(n1)CC(NC(=O)C1CC1C)C(=O)N1CCCC(N1)C(=O)OCC(C)(C)C2
- viability, T/C [7]: 88.7%
- viability, T/C [8]: 84%
- viability, T/C [9]: 117%
- viability, T/C [10]: 104%
- viability, T/C [11]: 123%
- viability, T/C [12]: 85%
- viability, T/C [13]: 121%
- viability, T/C [14]: 93%
- viability, T/C [15]: 88.9%
- viability, T/C [16]: 95.2%
- viability, T/C [17]: 105%
- viability, T/C [18]: 109%
- viability, T/C [19]: 106%
- viability, T/C [20]: 103%
- viability, T/C [21]: 88.5%
- viability, T/C [22]: 111%
- viability, T/C [23]: 97.1%
- viability, T/C [24]: 89.9%
- viability, T/C [25]: 78.9%
- viability, T/C [26]: 88.8%
- viability, T/C [27]: 103%
- viability, T/C [28]: 105%
- viability, T/C [29]: 119%
- viability, T/C [30]: 69.7%
- viability, T/C [31]: 103%
- viability, T/C [32]: 122%
- viability, T/C [33]: 105%
- viability, T/C [34]: 117%
- viability, T/C [35]: 92.8%
- viability, T/C [36]: 88.4%
- viability, T/C [37]: 103%
- viability, T/C [38]: 88.1%
- viability, T/C [39]: 96.8%
- viability, T/C [40]: 97.3%
- viability, T/C [41]: 91.2%
- viability, T/C [42]: 137%

- IC50 (compound alone, run of 06/10/2024): > 10 µM
Compound: C#Cc1c(F)ccc2cc(O)cc(-c3ncc4c(N5CC6CCC(C5)N6)nc(OCC56CCCN5CC(F)C6)nc4c3F)c12 (centres undefined)
- viability, T/C (compound 0.316 µM): 114% [middle of 8 runs]
- viability, T/C (compound 3.16 µM): 94.4% [middle of 8 runs]
